Source: US6479265B1, “Catalytic antibodies which hydrolyze primary amides and methods for eliciting and use of such antibodies” (Igen International, Inc., priority 1993, dated 2002)

Tested on: 13D11
Assay: Inhibition of hydrolysis of 10 by 13D11 (secondary screening)
Assay type: biochemical, mice
Settings: buffer tried as an alternative to Tris
Procedure: Antibody 13D11 (14.5 μM) was re-screened for activity toward 10 (nominally 500 μM) in the absence and presence of 63 μM (RT-2 hapten)(D/L mixture).
Until this point, 13D11 antibody had been purified by Protein A and DEAE chromatography. To determine whether the activity toward 10 was due to a contaminating enzyme, 13D11 was further purified on a Mono Q column (Pharmacia) by FPLC.

Compound: O=S(=O)(O)CCNC1CCCCC1 [CHES]
- inhibition of the hydrolysis of 10 by 13D11: found to inhibit
